Among the data in patent US10722464B2, “Compositions for delivery of drug combinations” (priority 2001, dated 2020) are AUC values, retold here.

This series can be described thus: in vivo. The settings on record: SCID/rag2, mouse, plasma, iv, 10 mg/kg.

A word on the AUC: it is the area under the concentration-time curve, a measure of exposure. A higher AUC goes with more exposure. As to `CCC1=C[C@@H]2CN(C1)Cc1c([nH]c3ccccc13)[C@@](C(=O)OC)(c1cc3c(cc1OC)N(C)[C@H]1[C@@](O)(C(=O)OC)[C@H](OC(C)=O)[C@]4(CC)C=CCN5CC[C@]31[C@@H]54)C2` [free vinorelbine, vinorelbine], the AUC was determined as 112 ng·h/mL.
